Laboratory results as given in paper PMC7880690, “Chemical genetics and proteome-wide site mapping reveal cysteine MARylation by PARP-7 on immune-relevant protein targets” (eLife, 2021).

Experiments:
[1] = biological target: T1, IG-PARP-7 (I631G PARP-7) (Homo sapiens, UniProt Q7Z3E1, I631G); assay: Labeling by orthogonal NAD+ analogs in HEK 293T lysates expressing GFP-IG-PARP-7 (click with biotin-azide, Streptavidin-HRP); assay type: biochemical; conditions: HEK 293 T cell lysates, 100 µM NAD+ analog
T1 construct: expressed in transfected cells; host or cells: HEK 293T (lysate)
Excerpt: Identifying the protein targets of PARP-7 is a critical first step toward unraveling its function in cells. In previous work we have developed an engineered enzyme—modified substrate strategy for identifying relevant targets of individual PARP family members ([Carter-O'Connell et al., 2014]; [Carter-O'Connell et al., 2016]; [Carter-O'Connell and Cohen, 2015]; [Carter-O'Connell et al., 2018]). This chemical genetic (CG) method uses engineered PARPs and an orthogonal NAD^+ analogue that contains a clickable handle (e.g. an alkyne) that is located at the N-6 position of the adenine ring (5-Bn-6-a-NAD^+). […] Importantly, 5-Bn-6-a-NAD^+ is not used by wild-type (WT) PARPs and in this way is orthogonal to native NAD^+. […] We therefore sought a new orthogonal NAD^+ analogue that would serve as an efficient substrate for floor position engineered PARP-7, I631G PARP-7 (IG-PARP-7) (Figure 1a).
Figure 1. A chemical genetic strategy for identifying the direct MARylation targets of PARP-7. (a) Schematic of chemical genetic approach for identifying direct targets of PARP-7. (b) Crystal structure of human PARP1 bound to the non-hydrolyzable NAD^+ analog benzamide adenine dinucleotide (BAD). PDB: 6bhv. […] Following copper-catalyzed click chemistry with biotin-azide, proteins were resolved by SDS-PAGE and biotinylated proteins were detected by Western blot detection using Streptavidin-HRP. […]

[2] = biological target: T2, PARP11FL (Homo sapiens, UniProt Q9NR21); assay: ADP-ribosylation plate assay, PARP11FL
T2 sequence (Q9NR21 1-338): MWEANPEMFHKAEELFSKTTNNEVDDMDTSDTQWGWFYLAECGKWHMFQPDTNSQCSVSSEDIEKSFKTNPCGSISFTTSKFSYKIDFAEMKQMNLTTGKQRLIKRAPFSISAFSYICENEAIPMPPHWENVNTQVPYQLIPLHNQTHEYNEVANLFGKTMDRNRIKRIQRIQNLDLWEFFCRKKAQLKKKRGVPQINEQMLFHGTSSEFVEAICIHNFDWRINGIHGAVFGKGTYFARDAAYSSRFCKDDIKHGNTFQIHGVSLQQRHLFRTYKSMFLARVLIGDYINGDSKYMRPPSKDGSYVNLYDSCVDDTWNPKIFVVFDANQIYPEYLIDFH

[3] = biological target: T3, PARP-7 (Homo sapiens, UniProt Q7Z3E1)
T3 sequence (Q7Z3E1 1-657): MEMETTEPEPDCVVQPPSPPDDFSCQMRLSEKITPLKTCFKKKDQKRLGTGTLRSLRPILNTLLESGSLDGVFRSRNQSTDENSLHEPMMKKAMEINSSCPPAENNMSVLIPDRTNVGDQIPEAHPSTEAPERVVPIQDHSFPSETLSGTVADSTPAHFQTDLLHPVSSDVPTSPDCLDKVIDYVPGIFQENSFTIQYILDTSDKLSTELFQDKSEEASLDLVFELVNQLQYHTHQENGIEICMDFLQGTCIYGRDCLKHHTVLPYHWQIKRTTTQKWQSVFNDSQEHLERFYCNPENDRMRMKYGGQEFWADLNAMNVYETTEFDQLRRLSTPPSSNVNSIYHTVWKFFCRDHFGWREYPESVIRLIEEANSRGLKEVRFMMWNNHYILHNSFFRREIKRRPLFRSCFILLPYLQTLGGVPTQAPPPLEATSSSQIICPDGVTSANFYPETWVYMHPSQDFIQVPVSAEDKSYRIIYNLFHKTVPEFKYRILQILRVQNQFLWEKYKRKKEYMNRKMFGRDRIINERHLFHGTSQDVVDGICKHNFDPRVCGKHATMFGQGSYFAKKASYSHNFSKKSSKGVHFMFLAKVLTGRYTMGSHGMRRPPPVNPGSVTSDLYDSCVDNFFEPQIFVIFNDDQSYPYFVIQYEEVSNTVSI

T1 sequence (Q7Z3E1 whole entry I631G): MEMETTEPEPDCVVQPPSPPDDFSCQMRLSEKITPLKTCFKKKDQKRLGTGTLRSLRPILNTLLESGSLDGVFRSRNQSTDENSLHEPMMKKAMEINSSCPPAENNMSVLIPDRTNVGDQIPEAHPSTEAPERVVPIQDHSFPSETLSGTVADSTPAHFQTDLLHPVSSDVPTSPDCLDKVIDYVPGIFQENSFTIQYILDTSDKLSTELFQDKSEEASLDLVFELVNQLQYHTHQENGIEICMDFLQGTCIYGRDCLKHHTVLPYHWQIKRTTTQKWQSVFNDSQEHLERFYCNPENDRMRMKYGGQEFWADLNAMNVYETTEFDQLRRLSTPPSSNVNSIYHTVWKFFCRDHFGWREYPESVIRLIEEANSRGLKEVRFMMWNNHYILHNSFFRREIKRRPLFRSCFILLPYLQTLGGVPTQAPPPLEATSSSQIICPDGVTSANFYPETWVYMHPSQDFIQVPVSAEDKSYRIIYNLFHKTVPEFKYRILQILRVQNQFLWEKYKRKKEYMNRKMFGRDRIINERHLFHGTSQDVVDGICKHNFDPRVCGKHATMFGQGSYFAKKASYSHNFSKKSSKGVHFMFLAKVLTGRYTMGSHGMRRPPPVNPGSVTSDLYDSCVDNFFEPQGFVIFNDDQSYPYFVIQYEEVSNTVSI

| Structure (SMILES) | substrate for floor position engineered PARP-7 (IG-PARP-7) [1] | IC50 [2] | EC50 [3] |
| --- | --- | --- | --- |
| C#Cc1nc(N)c2ncn(C3OC(COP(=O)(O)OP(=O)([O-])OCC4OC([n+]5cc(Cc6ccccc6)cc(C(N)=O)c5)C(O)C4O)C(O)C3O)c2n1 (stereo not drawn) [5-Bn-2-e-NAD^+, 5-benzyl-2-ethynyl-NAD^+] | much better substrate |  |  |
| N#Cc1ccc(N2CCN(C(=O)c3cc(Cc4n[nH]c(=O)c5ccccc45)ccc3F)CC2)nc1 [Phthal01, 6-(4-(2-fluoro-5-((4-oxo-3,4-dihydrophthalazin-1-yl)methyl)benzoyl)piperazin-1-yl)nicotinonitrile] |  | 460 ± 20 nM | ~60 nM |
